These results are taken from paper PMC3931418 (Nature, 2014).

For experiment [1], the system named is δ-OR. The settings on record: cited from earlier work.
Experiment [2] has as its system δ-OR sodium-anchored residue mutants. In words: cAMP assay. Type of experiment: cell-based, human.
Experiment [3] has the same test system. In words: δ-OR β-arrestin recruitment assay. The following applies: sodium-anchored residue mutants compared to WT. On the technique in general: Recruitment of arrestin is a read-out of receptor activation apart from second messengers.
Experiment [4] addresses WT δ-OR (Homo sapiens, UniProt P41143). In words: δ-OR β-arrestin recruitment assay.
In experiment [5] the target is δ-OR (Homo sapiens, UniProt P41143). In words: cAMP assay. Type of experiment: cell-based. The settings on record: receptors transfected with 15 µg DNA.
Experiment [6] addresses δ-OR WT (HEK293) (Homo sapiens, UniProt P41143). Type of experiment: binding.
Experiment [7] concerns the target δ-OR D95A (HEK293) (Homo sapiens, UniProt P41143, D95A).
The target in experiment [8] is δ-OR D95N (HEK293) (Homo sapiens, UniProt P41143, D95N).
For experiment [9], the target named is δ-OR N131A (HEK293) (Homo sapiens, UniProt P41143, N131A). Type of experiment: binding.
Setting [10] is: cooperativity of sodium with DADLE.

δ-OR N131A (HEK293), sequence (P41143 whole entry N131A): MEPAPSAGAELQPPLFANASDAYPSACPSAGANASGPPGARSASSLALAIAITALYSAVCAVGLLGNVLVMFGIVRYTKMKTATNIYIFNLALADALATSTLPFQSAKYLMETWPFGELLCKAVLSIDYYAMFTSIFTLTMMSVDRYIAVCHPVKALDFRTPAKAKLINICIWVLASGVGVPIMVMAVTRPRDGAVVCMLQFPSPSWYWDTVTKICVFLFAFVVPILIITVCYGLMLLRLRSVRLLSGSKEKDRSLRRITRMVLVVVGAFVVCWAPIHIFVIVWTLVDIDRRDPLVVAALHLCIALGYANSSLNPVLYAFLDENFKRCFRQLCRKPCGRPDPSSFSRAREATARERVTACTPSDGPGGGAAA
WT δ-OR, sequence (P41143 whole entry): as the sequence (P41143 whole entry N131A) above, with A131N counted along it
δ-OR WT (HEK293), sequence (P41143 whole entry): as the sequence (P41143 whole entry N131A) above, with A131N counted along it
δ-OR D95A (HEK293), sequence (P41143 whole entry D95A): as the sequence (P41143 whole entry N131A) above, with D95A, A131N counted along it
δ-OR D95N (HEK293), sequence (P41143 whole entry D95N): as the sequence (P41143 whole entry N131A) above, with D95N, A131N counted along it
δ-OR (Homo sapiens, UniProt P41143), sequence (P41143 whole entry): as the sequence (P41143 whole entry N131A) above, with A131N counted along it

On to `C=CCN1C[C@H](C)N([C@H](c2ccc(C(=O)N(CC)CC)cc2)c2cccc(O)c2)C[C@H]1C`, for which the “effect of sodium ions on binding to the receptor” value in experiment [1] was “minimally affected”. Further, in experiment [2] (sodium-anchored residue mutants compared to WT), the G-protein signaling result is reported as “low to moderate reduction”. For the same compound, the β-arrestin signaling entry in experiment [3] is reported as “low to moderate reduction”.

Regarding `O=C1/C(=C/c2ccccc2)C[C@@]2(O)[C@H]3Cc4ccc(O)c5c4[C@@]2(CCN3CC2CC2)[C@H]1O5` [BNTX], the “agonist activity at the β-arrestin pathway” value (“agonist activity” for short) in [4] is given as “no apparent agonist activity”.

Consider `Oc1ccc2c3c1O[C@H]1c4oc5ccccc5c4C[C@@]4(O)[C@@H](C2)N(CC2CC2)CC[C@]314` [naltriben], for which the “agonist activity” value in experiment [4] is on record as “no apparent agonist activity”.

With `Oc1ccc2c3c1O[C@H]1c4[nH]c5ccccc5c4C[C@@]4(O)[C@@H](C2)N(CC2CC2)CC[C@]314` [naltrindole], the “agonist activity” value in experiment [4] was “no apparent agonist activity”. Also, in [5], the “activity at Gαi signaling” value is reported as “weak partial agonist activity”.

As to `[Na+]` [sodium], the “Hill Coefficient” value in experiment [6] was 0.56 ± 0.16; in experiment [7], “NAE”; in [8] it was “NAE”; in experiment [9], “NAE”. Also, the “Na+ pKB ± SEM” value is 1.88 ± 0.10 in experiment [6] (allosteric model, orthosteric ligand DADLE); “NAE” in experiment [7]; “NAE” in experiment [8]; “NAE” in experiment [9]. Further, the “pα ± SEM” value is recorded as 1.93 ± 0.34 in [6] (setting [10]), “NAE” in experiment [7], “NAE” in experiment [8] and “NAE” in experiment [9]. The α in [6] (setting [10]) is recorded as 0.012; in [7], “NAE”; in experiment [8], “NAE”; in experiment [9] it was “NAE”. In experiment [6] (read-out: Na+ KB, allosteric model, orthosteric ligand DADLE), the Kb is 13.3 mM. The “Na+ KB” value in experiment [7], in experiment [8] and in experiment [9] was “NAE” throughout.

For DADLE, in experiment [2] (Asp95Ala, Asn310Ala and Asn314Ala mutants), the “G protein agonist efficacy” value is given as “low to moderate reduction”.
